Source: US20030023101A1, “Method for production of maleic anhydride” (priority 2001, published 2003)

What was measured:
[1] = 20° C., normal pressure (1013 hPa); Chemical Handbook (Maruzen), Beilstein Online; cited from earlier work
[2] = Maximum dissolving concentration of organic solvent in water (Referential Example 1); assay type: physicochemical; details: solvent as solute in 80 g purified water, 20° C., visual observation
Description: One species of organic solvent or a mixture of two or more species of solvent to be used in this invention was selected by the following method. In a tightly closable glass vessel measuring 100 ml in inner volume and furnished with a lid, 80 g of purified water kept at a temperature of 20° C. was placed and stirred with a stirrer and meanwhile a given organic solvent or solvent mixture was added dropwise to the stirred water. The state of solution consequently assumed after one hour's standing was visually observed. When any residue of the solute was found in the solution, the confirmation of the solubility mentioned above was repeated, with the quantity of dropwise addition per round decreased. The minimum quantity of the organic solvent or the solvent mixture as the solute to be used for the dropwise addition was set at 0.02 g. […] Specifically, the magnitude found by the following formula,
(§1) Maximum dissolving concentration (% by weight)={Solute/(Solute+Solvent)}×100
is the maximum dissolving concentration contemplated by this invention. […] The present example concerns computation of the maximum dissolving concentration of a given solute in 80 g of a solvent in accordance with the formula mentioned above. The maximum dissolving concentration was determined at a solution temperature of 20° C. Incidentally, when two or more species of organic solvent are mixed and used in the distillation for azeotropic dehydration, the maximum dissolving concentration of the mixture is determined by the method described above.

[3] = Maximum dissolving concentration of maleic acid in the solvent (Referential Example 2); assay type: physicochemical; details: maleic acid as solute in 80 g solvent, 20° C., insoluble = residue even at 0.01 g
Description: (§2) In a tightly closable glass vessel measuring 100 ml in inner volume and furnished with a lid, 80 g of a given solvent kept at a temperature of 20° C. was placed and stirred with a stirrer and meanwhile maleic acid or fumaric acid of the special reagent grade as defined in the paragraph covering the determination of maximum dissolution concentration was added to the stirred solvent. The state of solution consequently assumed was visually confirmed. When the solute left any residue behind in the solution even after one hour's stirring, the sample was reported as insoluble. When the residue of the solute was found, the confirmation of the maximum dissolving concentration mentioned above was repeated, with the quantity of addition per round decreased. The minimum quantity of addition was set at 0.01 g. Thus, the maximum quantity of dropwise addition (weight of solute) which was recognized to have given rise to no residue of elute was determined and computed as the maximum dissolution concentration in 80 g of a given solvent. Specifically, the magnitude found by the following formula,
as §1
(§3) is the maximum dissolving concentration contemplated by this invention. When the elute left any residue behind in the solution even at the minimum quantity of dropwise addition of 0.01 g ([…]), the sample was reported as insoluble. Incidentally, the maximum dissolution concentration was measured at a solution temperature of 20° C.

[4] = Maximum dissolving concentration of fumaric acid in the solvent (Referential Example 2); assay type: physicochemical; details: fumaric acid as solute in 80 g solvent, 20° C., insoluble = residue even at 0.01 g
Description: as §2, §1, §3

Maximum dissolving concentration in water [2] [% by weight] | Maximum dissolving concentration in solvent, Maleic acid [3] | Maximum dissolving concentration in solvent, Fumaric acid [4] | SMILES | Maximum dissolving concentration of the azeotropic solvent (1) in water [1] [% by weight] | other results
 |  |  | CCCC(=O)CC [3-hexnaone] | 1.57 | 
 |  |  | CCCCC(C)=O [2-hexanone] | 1.75 | 
0.05 | 0.62 % by weight | Insoluble | CC(C)CC(=O)CC(C)C [DIBK, diisobutyl ketone] |  | 
0.41 | 1.22 % by weight | 0.02 % by weight | CC(C)C(=O)C(C)C [DIPK, diisopropylketone] | 0.43 | 
 |  |  | CCCCCC(C)=O [2-heptanone] | 0.44 | 
 |  |  | C=CCOC(C)=O [allyl acetate] | 2.8 | 
 |  |  | CCCCCOC(C)=O [amyl acetate] | 0.25 | 
 |  |  | CCC(=O)CC [3-pentanone] | 4.6 | 
1.85 | 4.14 % by weight | 0.14 % by weight | CC(=O)CC(C)C [MIBK, methyl isobutylketone] | 1.91 | 
 |  |  | CCCCC(CC)CO (stereo not drawn) [2-ethyl-1-hexnol] | 0.10 | 

SMILES | Maximum dissolving concentration in water [2] [% by weight] | Maximum dissolving concentration in solvent, Maleic acid [3] | Maximum dissolving concentration in solvent, Fumaric acid [4] | Maximum dissolving concentration of the azeotropic solvent (1) in water [1] [% by weight] | other results
Cc1ccccc1C [o-Xylene, o-xylene] | 0.02 | Insoluble | Insoluble |  | Maximum dissolving concentration in water ([2]; listed as o-xylene): low solubility in water; Maximum dissolving concentration in solvent, Maleic acid ([3]; listed as o-xylene): did not dissolve; Maximum dissolving concentration in solvent, Fumaric acid ([4]; listed as o-xylene): did not dissolve
